10 sequences from patent US20130203649A1, “INHIBITORS OF TLR SIGNALING BY TARGETING TIR DOMAIN INTERFACES” (UNIVERSITY OF MARYLAND, BALTIMORE, priority 2012, published 2013) can be followed below.

What all share (type): cell-based
Test [1] deals with TLR4. The test can be described thus: LPS-induced cytokine mRNA expression in mouse macrophages (real-time RT-PCR). The conditions noted are these: for LPS-induced cytokine mRNA induction: peritoneal macrophages (FIG. 14A); for LPS-induced TNF-α and IL-1β mRNA expression: 20 μM peptide 30 min, LPS 1 hour (FIG. 13A). The method, then:
(§1) C57BL/6J mice were obtained from The Jackson Laboratory (Bar Harbor, Me.). Primary peritoneal macrophages were obtained by peritoneal lavage 4 days after intraperitoneal injection (3 ml) of sterile 3% thioglycolate broth. Washed cells were resuspended in RPMI 1640 which contained 2% FBS, 1% penicillin:streptomycin and 2 mM L-glutamine. After plating, cells were incubated overnight at 37° C. and then washed with PBS to remove non-adherent cells. Cells were exposed to peptides 30 min before stimulation with a TLR agonist.
(§2) Total cellular RNA was isolated using Tripure from Roche (San Francisco, Calif.) following manufacture's protocol. RNA was then reverse transcribed using AMV Reverse Transcriptase from Promega (Madison, Wis.) with poly-T priming as per manufacturer's directions. cDNA was then quantified by real-time PCR using Applied Biosystems Fast SYBR Green PCR Master Mix and an ABI Prism 7500HT cycler. Primers used for detection: hypoxanthine phosphoribosyltransferase (HPRT) (forward: […] (SEQ ID NO:51), reverse: […] (SEQ ID NO:52)), TNFα (forward: […] (SEQ ID NO:53), reverse: […] (SEQ ID NO:54)), IL-1β (forward: […] (SEQ ID NO:55), reverse: […] (SEQ ID NO:56)), IFNβ (forward: […] (SEQ ID NO:57), reverse: CTCGGACCACCATCCAGG (SEQ ID NO:58)) and RANTES (forward: […] (SEQ ID NO:59), reverse: […] (SEQ ID NO:60)). The primers were designed using Primer Express 2.0 (Applied Biosystems). Using HPRT as reference, the ΔCt method was used to calculate relative gene expression. One-way ANOVA was preformed, as well as Dunnett's multiple comparison post hoc test with a p≦0.01 selected as the level of significance.
Total RNA was isolated with Nucleospin RNA II kits (Macherey-Nagel, Bethlehem, Pa.), followed by DNase digestion. cDNA was synthesized from 1 μg RNA using Goscript transcriptase (Promega), and subjected to real-time PCR with gene-specific primers for HPRT, TNF-α, IL-1β, IFNβ, and RANTES on H7900 ABI system using Fast SYBR Green master mix (Applied Biosystems, Foster City, Calif.).
To evaluate peptide-inhibitory activities, we first measured LPS-induced cytokine mRNA expression. […] […] Decoy peptide TM4 is derived from the BB loop of TRAM TIR; we previously identified this peptide as an effective TLR4 inhibitor (19).

Test [2] concerns TLR4. The test can be described thus: Inhibition of TLR4 signaling in thioglycollate-elicited mouse macrophages (effective concentration, overall inhibitory activity). Particulars: TLR4 pathway; thioglycollate-elicited mouse macrophages. The method, then:
as §1
TIRAP/Mal functions to facilitate MyD88 recruitment to the activated TLR4 and TLR2, presumably through a simultaneous interaction with receptor and MyD88 TIR domains. Therefore, multiple TIR:TIR interaction sites are expected in TIRAP TIR. The decoy peptide approach was used to obtain leads on the functional protein-protein interfaces within TIRAP/Mal, a TLR adapter protein. To this end, eleven TIRAP TIR-derived decoy peptides were designed to be structurally homologous to the TLR4 TIR-derived decoy peptides used previously (1), so that each peptide represents a non-fragmented patch of the TIRAP TIR surface, with the entire domain encompassed by the set of peptides. The TIRAP TIR-derived decoy peptides were synthesized in tandem with the cell-permeating sequence of Antennapedia homeodomain (21) and each peptide was tested for the ability to inhibit TLR4 and TLR2 signaling in primary mouse macrophages. Peptide sequences and the structural regions they represent are shown in reference (30).
(§3) C57BL/6J mice were obtained from The Jackson Laboratory (BarHarbor, Me.). Harvesting, culturing, and stimulation of peritoneal macrophages were described in previous publications (1, 18, 19). Escherichia coli K235 LPS (34) was used at the final concentration of 100 ng/ml. The 2,3-bis(palmitoyloxy)-(2-RS)-propyl-N-palmitoyl-(R)-Cys-Ser-Lys4-OH (P3C) and S[2,3-bis(palmitoyloxy)-(2-RS)-propyl]-[R]-Cys-Ser-Lys4-OH (P2C) (EMC Microcollections, Tubingen, Germany) were used at 500 and 50 ng/ml, respectively. Oligonucleotide (ODN) 1668 and low m.w. polyinosinic-polycytidylic acid [poly(I:C)] in complex with LyoVec were obtained from InvivoGen; these agonists were used at 2.5 μM and 400 ng/ml, respectively.

The subject of test [3] is TLR4. The test can be described thus: LPS-induced MAPK (ERK, JNK, p38) activation in mouse macrophages (Western analysis). The conditions noted are these: for LPS-induced activation of ERK and JNK MAPKs: peritoneal macrophages (FIG. 14B); for LPS-induced activation of p38 and ERK MAPKs: 20 μM peptide, LPS 30 min. The method, then:
Cellular protein extracts were isolated by addition of 240 μL per well cold lysate buffer (20 mM Tris, 50 mM NaCl, 1.5 mM MgCl2, 2 mM EDTA, 10 mM NaF, 2 Mm DTT, 1 mM Na3VO4, 1% Triton). Cells were incubated with lysis solution for 30 min on agitator at 4° C. Lysate was then collected and centrifuged at 14,000 g for 10 minutes at 4° C. After quantification using BioRad protein assay, protein samples were added to Laemmli buffer and then boiled for 10 min. Samples were then resolved by SDS-10% PAGE in Tris/glycine/SDS buffer (25 mM Tris, 250 mM glycine, 0.1% SDS), and transferred onto Immobilon P transfer membranes (Millipore, Bedford, Mass.) (100 V, 1.5 h, 4° C.). Membranes were blocked for 1 h in TBS-T (20 mM Tris-HCl, 150 mM NaCl, 0.1% Tween 20) containing 5% nonfat milk, then probed for overnight at 4° C. with the respective antibodies (Abs) (dilution 1:1000 in TBS-T with 2% BSA). After washing in TBS-T, membranes were incubated with secondary HRP-conjugated, donkey anti-rabbit IgG (1:10,000 dilution in TBS-T with 5% nonfat milk) for 1 h at room temperature. Membranes washed five times in TBS-T before development with ECL reagents (GE Healthcare) according to manufacturer's directions.
HEK293T cells were transfected with indicated plasmids using Superfect Transfection Reagent (Qiagen). Twenty-four hours posttransfection, the cells were lysed using the buffer containing 20 mM HEPES (pH 7.4), 150 mM NaCl, 10 mM NaF, 2 mM Na3VO4, 1 mM EDTA, 1 mM EGTA, 0.5% Triton X-100, 0.1 M DTT, 1 mM PMSF, and protease inhibitor mixture (Roche, Indianapolis, Ind.). Rabbit Ab against phospho-ERK, phospho-JNK, MyD88 (D80F5), STAT1-Y701, total STAT1, and GAPDH were purchased from Cell Signaling Technology (Beverly, Mass.). Rabbit anti-phospho-p38 Ab was purchased from Promega (Madison, Wis.). Goat anti-TLR4 (M−16), rabbit anti-TLR4 (H-80), anti-HA-HRP (F-7), and rabbit anti-b-actin Ab were purchased from Santa Cruz Biotechnology. Mouse anti-Flag M2 and rabbit anti-HA Ab were from Sigma-Aldrich. GFP Ab (A1122) was from Invitrogen. Protein was quantified using Bio-Rad protein quantification kit. Equal amount of protein was loaded and analyzed by 10% SDS-PAGE and immunoblotting. The cell extracts containing equal amount of protein were incubated with 1 μg Ab for 2 h, followed by 4-h incubation with 25 μl protein G agarose beads (Roche); the beads were then washed four times with lysis buffer, boiled in […] sample loading buffer, and analyzed by immunoblotting.
We next examined whether TRAM peptides inhibit the TLR4-mediated p38, ERK, and JNK MAPK activation. Murine macrophages pretreated with peptides for 30 min were challenged with LPS. Cell lysates were collected 30 min post-stimulation and analyzed for MAPK phosphorylation by Western analysis. Consistent with peptide effects on steady-state mRNA, both TM4 and TM6 inhibited activation of all three MAPKs (FIG. 5C). The inhibition of MAPKs by TM4 or TM6 was long lasting; it persisted for at least 1 h after LPS stimulation (data not shown). To characterize further the effects of TRAM peptides on MAPKs, murine macrophages were treated with TRAM peptides, but not challenged by LPS.

Another test addresses T1, TLR2 (Mus musculus, UniProt Q9QUN7).
T1 construct: Primary peritoneal macrophages were obtained by peritoneal lavage; endogenous in cells; host or cells: thioglycollate-elicited mouse peritoneal macrophages
The test can be described thus: Inhibition of TLR2 signaling in thioglycollate-elicited mouse macrophages (effective concentration, TLR2 agonists P3C/P2C). Particulars: for Effective conc.: TLR2 pathway, thioglycollate-elicited mouse macrophages; for IL-1β expression induced by TLR2 agonists: P2C and P3C (FIG. 16A, B). Here is the method: as §1
(§4) Protein-free Escherichia coli K235 LPS was used at final concentration of 10 ng/ml to stimulate cells. S-[2,3-bis(palmitoyloxy)-(2-RS)-propyl]-N-palmitoyl-(R)-Cys-Ser-Lys4-OH (P3C) and S-[2,3-bis(palmitoyloxy)-(2-RS)-propyl]-[R]-Cys-Ser-Lys4-OH (P2C) were purchased from EMC microcollections GmbH (Tubingen, Germany) and used for cell stimulation at 500 and 50 ng/ml, respectively. Phospho-ERK1/2 and phospho-JNK1/2 rabbit Abs were obtained from Cell Signaling Technology, Inc. β-actin rabbit Ab were from SantaCruz Biotechnology, Inc.
(§5) Because of the role TRAP plays in TLR2 signaling, TIRAP TIR-derived decoy peptide effects on TLR2-induced cytokine mRNA expression were examined. Thioglycollate-elicited mouse macrophages were stimulated either by P2C, an agonist that induces signaling through TLR2/TLR6 heterodimerization, or P3C, a TLR2/TLR1 agonist, and effects of TIRAP TR-derived decoy peptides on induction of cytokine mRNA were examined. […] To confirm the inhibitory effect of TR3 and TR6 on P3C-induced signaling, IL-6 and TNF-α concentration was measured in macrophage supernatants collected 5 h after stimulation of cells with P3C. […] Concordantly, both TR3 and TR6 diminished the P3C-induced ERK phosphorylation (FIG. 3D).
as §3

The target in another test is T2, TLR2/TLR1 heterodimer (Mus musculus, UniProt Q9QUN7).
T2 construct: endogenous in cells; host or cells: thioglycollate-elicited mouse peritoneal macrophages
Description: P3C-induced cytokine mRNA expression in mouse macrophages. The conditions noted are these: peptide 30 min; P3C 500 ng/ml 1 hour (FIG. 15A).
Source text: as §2, §4, §5, §3

No end group written: not given here.

T1 sequence (Q9QUN7 25-784): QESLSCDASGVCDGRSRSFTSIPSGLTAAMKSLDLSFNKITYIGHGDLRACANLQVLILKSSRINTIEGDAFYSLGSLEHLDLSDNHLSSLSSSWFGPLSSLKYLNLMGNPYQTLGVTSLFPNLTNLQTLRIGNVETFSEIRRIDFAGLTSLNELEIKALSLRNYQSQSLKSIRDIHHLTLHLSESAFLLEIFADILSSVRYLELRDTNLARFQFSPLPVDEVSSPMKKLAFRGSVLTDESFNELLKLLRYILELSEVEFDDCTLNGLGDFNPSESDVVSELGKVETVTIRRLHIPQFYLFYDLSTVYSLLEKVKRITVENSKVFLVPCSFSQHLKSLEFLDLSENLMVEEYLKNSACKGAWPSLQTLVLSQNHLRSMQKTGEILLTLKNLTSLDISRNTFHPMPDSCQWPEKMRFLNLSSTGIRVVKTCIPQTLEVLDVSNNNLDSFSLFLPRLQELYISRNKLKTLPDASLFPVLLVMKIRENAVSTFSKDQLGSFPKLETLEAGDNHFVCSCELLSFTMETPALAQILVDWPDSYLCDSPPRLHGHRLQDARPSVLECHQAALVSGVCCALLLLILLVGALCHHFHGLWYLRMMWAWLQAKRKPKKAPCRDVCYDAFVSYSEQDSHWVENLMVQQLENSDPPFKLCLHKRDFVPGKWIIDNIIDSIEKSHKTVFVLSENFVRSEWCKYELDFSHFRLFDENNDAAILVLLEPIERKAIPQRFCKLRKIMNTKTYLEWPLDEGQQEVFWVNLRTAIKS
T2 sequence (Q9QUN7 25-784, one chain of several): as the sequence (Q9QUN7 25-784) above

Take “RQIKIWFQNRRMKWKKAGCKKYSRGESIYD [Peptide 4R1]”: in the test with TLR4 [1], the “LPS-induced cytokine mRNA induction” value is “potently inhibit”. This sequence also yielded an Effective conc. in the test on TLR4 [2] of 20 µM. Further, the “LPS-induced activation of ERK and JNK MAPKs” value with TLR4 [3] is “potently inhibit”.
Regarding “RQIKIWFQNRRMKWKKEEGVPRFHLC [Peptide 4R3]”, in the test with TLR4 [1], the “LPS-induced cytokine mRNA induction” value is “potently inhibit”. This sequence registered an Effective conc. in the test with TLR4 [2] of 20 µM. Further, in the test with TLR4 [3], the “LPS-induced activation of ERK and JNK MAPKs” value is recorded as “potently inhibit”.
With “RQIKIWFQNRRMKWKKENSDPPFKLC [Peptide 2R3]”, at TLR2, the Effective conc. turned out to be 40 µM. The “Cytokine mRNA expression induced by P3C” value on TLR2/TLR1 heterodimer is “inhibit”.
“RQIKIWFQNRRMKWKKEPIERKAIPQRFCK [Peptide 2DD-αD]”: on TLR2, the “IL-1β expression induced by TLR2 agonists” value is “potently inhibits” and the Effective conc. was determined as 40 µM.
RQIKIWFQNRRMKWKKEQTDYRLKLC [Peptide M3]: in the test with TLR4 [1], the “LPS-induced TNF-α and IL-1β mRNA expression” value is listed as “inhibit”. Also, the Effective conc. with TLR4 [2] was 20 µM. In addition, the “LPS-induced activation of p38 and ERK MAPKs” value in the test on TLR4 [3] is on record as “inhibit”.
In the case of “RQIKIWFQNRRMKWKKHIFWRRLKNALLD [4R11/4αE]”, in the test on TLR4 [1], the “LPS-induced cytokine mRNA induction” value was “potently inhibit”. The sequence also displayed an Effective conc. in the test on TLR4 [2] of 20 µM. For the same sequence, the “LPS-induced activation of ERK and JNK MAPKs” value with TLR4 [3] is “potently inhibit”.
For “RQIKIWFQNRRMKWKKIASELIEKRCRRM [Peptide M5]”, the “LPS-induced TNF-α and IL-1β mRNA expression” value with TLR4 [1] is “inhibit”. Moreover, the Effective conc. in the test on TLR4 [2] is 20 µM. Moreover, in the test on TLR4 [3], the “LPS-induced activation of p38 and ERK MAPKs” value is “inhibit”.
Take “RQIKIWFQNRRMKWKKLHKRDFVPGKWIID [Peptide 2BB]”: at TLR2, the “IL-1β expression induced by TLR2 agonists” value is on record as “inhibits” and the Effective conc. is 40 µM.
As for “RQIKIWFQNRRMKWKKLRQQVELYRLLSR [Peptide 4R9]”, the “LPS-induced cytokine mRNA induction” value in the test on TLR4 [1] is listed as “potently inhibit”. Further, the Effective conc. with TLR4 [2] amounted to 20 µM. The “LPS-induced activation of ERK and JNK MAPKs” value in the test with TLR4 [3] is “potently inhibit”.
Take “RQIKIWFQNRRMKWKKSDRDVLPGTCVWS [Peptide M4]”: the “LPS-induced TNF-α and IL-1β mRNA expression” value in the test with TLR4 [1] is “inhibit”. Moreover, the Effective conc. in the test with TLR4 [2] is 20 µM. Moreover, in the test with TLR4 [3], the “LPS-induced activation of p38 and ERK MAPKs” value is reported as “inhibit”.
